From patent US20120196884A1, “UREA SUBSTITUTED SULPHONAMIDE DERIVATIVES” (BIOTIE THERAPIES CORPORATION, priority 2009, published 2012)
“Also recorded” adds a separate entry of the source.

Key:
[1] = system: platelet adhesion to collagen; assay: Cellix microfluidic system: platelet adhesion to collagen coated capillary under flow; format: cell-based, human; set-up: key to Inhibition of platelet adhesion to collagen: + indictes that the compound efficiently inhibited the platelet adhesion to collagen; details: for Inhibition of platelet adhesion to collagen: whole blood, collagen coated capillary, shear 90 dynes/cm^2
Procedure: Cellix microfluidic platform models human blood vessels providing a dynamic set-up mimicking physiological conditions to test new therapeutic agents (Cellix Ltd). The platform was used to measure the platelet adhesion to collagen coated capillary under flow. An anti-coaculated whole blood sample was run through a collagen coated capillary under a constant shear and the size of thrombi on capillary wall was analyzed with analysis program (DucoCell, Cellix Ltd).
The capillary were coated with Horm collagen 20 μg/mL (Nycomed) and incubated for 24 h in +4° C. Background was blocked with 1% BSA (bovine serum albumin, Sigma) treatment for 30 min in room temperature. Blood was collected from a donor into blood collection tubes containing 40 μM PPACK (Dphenylalanyl-L-prolyl-L-arginine chloromethyl-ketone, Calbiochem) as anticoagulant. Blood was treated either with inhibitory compounds or vehicle controls. Samples were kept at room temperature for 5 minutes. The samples were run through the capillary with the constant shear rate (90 dynes/cm^2, Mirus 1.0 Nanopump, Cellix Ltd) for 5 min and capillary was washed with JNL buffer (6 mM Dextrose, 0.13 M NaCl, 9 mM Na Bicarb, 10 mM Na Citrate, 10 mM Tris base, 3 mM KCl, 0.81 mM KH2PO4, 0.9 mM MgCl2; pH was adjusted to 7.35 with 19 mM Citrate acid anhydrous, 37 mM Sodium citrate, 67 mM Dextrose) with the constant shear rate (90 dynes/cm^2) for 2 min. After that the average thrombi area on the capillary wall was analyzed with DucoCell analysis program (Cellix Ltd).

[2] = system: PC-3 cells; assay: PC-3 cell invasion through Matrigel; format: cell-based; details: Homo sapiens, 72 hours
Description: The overexpression regulates cell adhesion and migration to and invasion through the extracellular matrix. By blocking the interaction between extracellular matrix components like collagen and α2β1 it is possible to block cancer cell migration and invasion in vitro. Prostate cancer cells (PC-3) expressing α2β1 endogenously were used to test the in vitro anticancer potential of the inhibitors of the present invention.
Invasion of PC-3 cells (CRL-1435, ATCC) through Matrigel was studied using BD Biocoat invasion inserts (BD Biosciences). Inserts were stored at −20° C. Before the experiments inserts were allowed to adjust to the room temperature. 500 μl of serum free media (Ham's F12K medium, 2 mM Lglutamine, 1.5 g/l sodium bicarbonate) was added into the inserts and allowed to rehydrate at 37° C. in cell incubator for two hours. The remaining media was aspirated. PC-3 cells were detached, pelleted and suspended into serum free media (50 000 cells/500 μL). 300 μL of cell suspension was added into the insert in the absence (control) or presence of the inhibitor according to the present invention. Inserts were placed on the 24-well plates; each well containing 700 μL of cell culture media with 3% of fetal bovine serum as chemoattractant. Cells were allowed to invade for 72 hours at 37° C. in cell incubator. Inserts were washed with 700 μL PBS, and fixed with 4% paraformaldehyde for 10 minutes. Paraformaldehyde was aspirated and cells were washed with 700 μL of PBS and inserts were stained by incubation with hematoxylin for 1 minute. The stain was removed by washing the inserts with 700 μL of PBS. Inserts were allowed to dry. Fixed invaded cells were calculated under the microscope. Invasion % was calculated as a comparison to the control.

[3] = system: whole blood; assay: PFA-100 platelet function analyzer, closure time of whole blood; format: cell-based; details: PFA-100 analysis, collagen and ADP membrane
Procedure: The PFA-100 is a high shear-inducing device that simulates primary haemostasis after injury of a small vessel. The system comprises a test-cartridge containing a biologically active membrane coated with collagen and ADP. An anticoaculated whole blood sample was run through a capillary under a constant vacuum. […] The time required to obtain full occlusion of the aperture was designated as the closure time. Each compound was added to the whole blood sample and the closure time was measured with PFA-100.
Blood was collected from a donor via venipuncture into evacuated blood collection Lithium heparin tubes (VenoJect, Terumo). Blood was aliquoted into 1.5 mL tubes and treated with either inhibitory compounds or controls (DMSO). Samples were kept at room temperature with rotation for 10 minutes and after that the closure time (Ct) of the blood was measured.

[4] = system: IL-6; assay: LPS-induced IL-6 release in whole blood; format: cell-based, human; details: LPS 0.25 ng/mL, 2 h
Procedure: The inflammatory cells are shown to be dependent on α2β1 function during inflammatory process. The anti-inflammatory potential of the α2β1 modulators was studied by measuring the effect on the release of cytokines like IL-6 as an example from inflammatory cells. Lipopolysaccharide (LPS) was used to induce the production of IL-6. Anticoaculated whole blood sample was incubated with or without the integrin α2β1 inhibitor before LPS was added to induce the cytokine release. The amount of cytokine IL-6 released from peripheral blood leukocytes was measured from plasma samples 2 hours after the induction.
Blood was collected from the donors via venipuncture into evacuated Lithium heparin tubes (VenoJect, Terumo). Blood was treated with either α2β1 integrin inhibitors or vehicle control (DMSO). Samples were kept at room temperature for 5 minutes and lipopolysaccharide (LPS, 0.25 ng/mL) was added to induce cytokine release from peripheral blood lymphocytes. Samples were inculabted for 2 h in 37° C., the plasma was isolated and the amount of IL-6 was determined with Human IL-6 Quantikine ELISA Kit (R&D Systems).

| SMILES | Inhibition of platelet adhesion to collagen [1] | inhibition at 5 µM [2] | also measured |
| --- | --- | --- | --- |
| COc1ccc(-n2cc(S(=O)(=O)N(C)c3ccc(NC(=O)Nc4ccccc4)cc3)cn2)cn1 [Compound B109] | + | – | – |
| COCCOc1cccc(NC(=O)Nc2ccc(NS(=O)(=O)c3cccc(-c4ccc(F)cc4)c3)cc2)c1 [Compound B60] | + | 70% | – |
| CN(c1ccc(NC(=O)Nc2ccncc2)cc1)S(=O)(=O)c1cccc(-c2ccc(F)cc2)c1 [Compound B75] | – | 38% | – |
| O=C(Nc1ccccc1)Nc1ccc(Cl)c(NS(=O)(=O)c2cccc(-c3ccc(F)cc3)c2)c1 [Compound B86] | – | 44% | – |
| CN(c1ccc(NC(=O)Nc2ccccc2)cc1)S(=O)(=O)c1cccc(OC(F)F)c1 [Compound B68] | – | 29% | – |
| CN(c1ccc(NC(=O)Nc2ccccc2)cc1)S(=O)(=O)c1ccc(-c2cc(C(F)(F)F)nn2C)s1 [Compound B19] | + | – | – |
| O=C(Nc1ccncc1)Nc1ccc(NS(=O)(=O)c2cccc(-c3ccc(F)cc3)c2)cc1 [Compound B93] | + | – | – |
| O=C(Nc1ccccc1)Nc1cc(NS(=O)(=O)c2cccc(-c3ccc(F)cc3)c2)ccc1Cl [Compound B47] | – | 96% | – |
| CN(C)c1ccc(-c2ccc(S(=O)(=O)N(C)c3ccc(NC(=O)Nc4ccccc4)cc3)s2)cn1 [Compound B7] | + | – | – |
| O=C(Nc1ccccc1)Nc1ccc(NS(=O)(=O)c2cccc(-c3ccc(F)cc3)c2)cc1 [Compound B94] | + | 40% | closure time (Ct) of the whole blood [3]: increases the closure time (Ct) |
| CN(c1ccc(NC(=O)Nc2ccccc2)cc1)S(=O)(=O)c1ccc(-n2ccnc2)s1 [Compound B17] | + | – | – |
| O=C(Nc1ccccc1)Nc1ccc(N(CCCO)S(=O)(=O)c2cccc(-c3ccc(F)cc3)c2)cc1 [Compound B33] | + | – | – |
| CN(c1ccc(NC(=O)Nc2ccccc2)cc1)S(=O)(=O)c1cccc(C#N)c1 [Compound B78] | + | 30% | – |
| Cc1ccccc1NC(=O)Nc1ccc(C)c(NS(=O)(=O)c2cccc(-c3ccc(F)cc3)c2)c1 [Compound B42] | + | – | – |
| Cc1ccc(NC(=O)Nc2ccccc2)cc1NS(=O)(=O)c1cccc(-c2ccc(F)cc2)c1 [Compound B40] | + | 98% | – |
| CN(c1ccc(NC(=O)Nc2ccccc2)cc1)S(=O)(=O)c1cc(C(F)(F)F)ccc1Cl [Compound B80] | – | 43% | – |
| O=C(NCc1ccccc1)Nc1ccc(NS(=O)(=O)c2cccc(-c3ccc(F)cc3)c2)cc1 [Compound B91] | – | 56% | – |
| CN(c1ccc(NC(=O)Nc2ccccc2)cc1)S(=O)(=O)c1cncc(-c2ccc(F)cc2)c1 [Compound B52] | – | 25% | – |
| CN(c1ccc(NC(=O)Nc2ccccc2)cc1)S(=O)(=O)c1cnn(-c2ccc(F)cn2)c1 [Compound B1] | + | – | platelet adhesion to collagen coated capillary under flow (FIG. 1) ([1]; Cellix analysis, flow conditions): dose dependent inhibitory effect; also recorded: inhibits the platelet adhesion to collagen coated capillary under mimicking physiological flow conditions dose dependently |
| Cc1ccc(NC(=O)Nc2ccccc2)cc1N(C)S(=O)(=O)c1cccc(-c2ccc(F)cc2)c1 [Compound B63] | – | 45% | – |
| Cc1ccccc1NC(=O)Nc1ccc(NS(=O)(=O)c2cccc(-c3ccc(F)cc3)c2)cc1 [Compound B64] | – | 42% | – |
| Cc1ccc(NC(=O)NCc2ccccc2)cc1NS(=O)(=O)c1cccc(-c2ccc(F)cc2)c1 [Compound B67] | + | 10% | – |
| CN(c1ccc(NC(=O)Nc2ccccc2)cc1)S(=O)(=O)c1ccc(-c2ccccn2)s1 [Compound B11] | + | – | – |
| COc1ccc(NC(=O)Nc2ccc(NS(=O)(=O)c3cccc(-c4ccc(F)cc4)c3)cc2)cc1 [Compound B72] | – | 39% | – |
| Cc1nn(-c2ccc(F)cc2)c(C)c1S(=O)(=O)N(CCCO)c1ccc(NC(=O)Nc2ccccc2)cc1 [Compound B54] | + | – | – |
| CN(c1ccc(NC(=O)Nc2ccccc2)cc1)S(=O)(=O)c1ccc(-c2ccnn2C)s1 [Compound B6] | – | – | release of IL-6 after induction with LPS [4]: decreases the release of cytokines like IL-6 |
| CN(c1ccc(NC(=O)Nc2ccccc2)cc1)S(=O)(=O)c1cccc(-c2ccc(F)cc2)c1 [Compound B55] | – | 76% | – |
| CN(c1ccc(NC(=O)Nc2ccccc2)cc1)S(=O)(=O)c1cnn(-c2ccc(F)cc2)c1 [Compound B3] | + | – | – |
| CN(c1ccc(NC(=O)Nc2ccccc2)cc1)S(=O)(=O)c1ccc(Cl)cc1Cl [Compound B77] | – | 40% | – |
